# From PubChem BioAssay (NCI)
# Values joined by “and” are separate entries in the source; they are usually repeats but may differ in a detail not shown here. Identical values can stand only once.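 All cell lines were grown in 96-well plates and treated with compound for 48 hours. Abbreviation: GI50, concentration required for 50% inhibition of growth. TGI: total growth inhibition.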
# Tests used:
# Test in all cases: inhibition of tumour cell growth, NCI panel, 48 h
# SK-OV-3 ovarian = system: SK-OV-3 ovarian
# UACC-257 melanoma = system: UACC-257 melanoma
# CCRF-CEM leukemia = system: CCRF-CEM leukemia
# RXF 393 renal = system: RXF 393 renal
# SK-MEL-2 melanoma = system: SK-MEL-2 melanoma
# 786-0 renal = system: 786-0 renal
# SW-620 colon = system: SW-620 colon
# SK-MEL-5 melanoma = system: SK-MEL-5 melanoma
# MDA-MB-435 = system: MDA-MB-435
# SF-295 CNS = system: SF-295 CNS
SMILES,TGI (SK-OV-3 ovarian),TGI (UACC-257 melanoma),TGI (CCRF-CEM leukemia) [µM],TGI (RXF 393 renal),TGI (SK-MEL-2 melanoma),TGI (786-0 renal),TGI (SW-620 colon) [µM],TGI (SK-MEL-5 melanoma),TGI (MDA-MB-435),TGI (SF-295 CNS) [µM],GI50 (SK-OV-3 ovarian),GI50 (UACC-257 melanoma),GI50 (CCRF-CEM leukemia),GI50 (RXF 393 renal),GI50 (SK-MEL-2 melanoma),GI50 (786-0 renal),GI50 (SW-620 colon),GI50 (SK-MEL-5 melanoma),GI50 (MDA-MB-435),GI50 (SF-295 CNS)
CCc1nc(N)nc(N)c1-c1ccc([N+](=O)[O-])c(Cl)c1,> 100 µM,> 100 µM,> 100,> 100 µM,> 100 µM,> 100 µM,> 100,> 82.5 µM,> 100 µM,> 100,,,,,,,,,,
CCCCCCN(CCCCCC)CC(O)c1cccc2ccc(Cl)cc12 (stereo unspecified),23.4 µM,28.7 µM,31.7,7.71 µM,24.6 µM,23.7 µM,15,5.17 µM,29.4 µM,22.1,11.3 µM,12.9 µM,11.4 µM,2.16 µM,10.2 µM,10.9 µM,3.82 µM,2.12 µM,10.2 µM,6.32 µM
CCN(CC)CCOc1ccc(C2=C(c3ccccc3)CCc3cc(OC)ccc32)cc1,13.6 µM,3.6 µM,> 49.3,35.9 µM,4.67 µM,2.88 µM,8.09,2.29 µM,3.4 µM,3.27,3.22 µM,1.81 µM,5.59 µM,10.2 µM,2.15 µM,1.51 µM,2.78 µM,0.811 µM,1.48 µM,1.59 µM
C=CC[PH+](c1ccccc1)c1ccccc1.C=CC[PH+](c1ccccc1)c1ccccc1.[Cl][Pt][Cl],65.7 µM,31.6 µM,> 100,9.82 µM,40.4 µM,25.5 µM,13.6,30.6 µM,28.9 µM,> 100,24 µM,11.9 µM,3.6 µM,3.33 µM,18.3 µM,12.6 µM,3.46 µM,15.8 µM,14.8 µM,37.9 µM
N#Cc1ccc(N2Cc3cc(Cl)ccc3OC3=C2C(=O)N(Cc2ccccc2)C3=O)cc1,31.5 µM,2.85 µM,0.827,3.05 µM,4.51 µM,3.44 µM,0.971,3.51 µM,3.27 µM,20.4,10.9 µM,1.35 µM,0.226 µM,1.54 µM,2.08 µM,1.92 µM,0.278 µM,1.84 µM,1.34 µM,5.22 µM
O=c1[nH]c2cc(O)ccc2n2cc3c(F)cccc3c12,> 100 µM,> 100 µM,> 100,> 100 µM,> 100 µM,> 100 µM,> 100,> 100 µM,> 100 µM,> 100,1.65 µM,31.9 µM,2.68 µM,0.969 µM,> 21.2 µM,4.29 µM,0.477 µM,0.348 µM,0.278 µM,2.85 µM
Nc1ncnc2c1ncn2Cc1ccc(C23CC4CC(CC(C4)C2)C3)c(O)c1,> 100 µM,61.2 µM,> 100,39.7 µM,> 100 µM,> 100 µM,> 100,88.2 µM,> 100 µM,> 100,36.3 µM,3.39 µM,3.97 µM,8.06 µM,> 100 µM,25.6 µM,48.7 µM,4.02 µM,15 µM,18.3 µM
O=[N+]([O-])c1cccc(-c2ncc(-c3ccc(Cl)cc3Cl)[nH]2)c1,> 70 µM,29 µM,4.48,6 µM,41.3 µM,11 µM,3.16,9.23 µM,12.2 µM,5.28,22.7 µM,9.7 µM,1.49 µM,2.25 µM,16.2 µM,5.16 µM,1.6 µM,4.59 µM,3.62 µM,2.14 µM
CC(=O)C1=C(O)/C(=C\c2ccco2)OC1=O,> 10 µM,> 10 µM,> 10,> 10 µM,> 10 µM,> 10 µM,> 10,> 10 µM,> 10 µM,> 10,,,,,,,,,,
CN1CCN(C(=S)SCN2C(=O)c3ccccc3S2(=O)=O)CC1,> 100 µM,> 100 µM,,> 100 µM,> 100 µM,43 µM,74.9,38.9 µM,99.4 µM,> 100,> 100 µM,63.9 µM,2.23 µM,39.5 µM,> 100 µM,12 µM,9.31 µM,16.1 µM,28.2 µM,> 100 µM
O=C(CN=Cc1cccs1)CSC(c1ccccc1)c1ccccc1,58.2 µM,48 µM,> 100,44.1 µM,34.8 µM,> 100 µM,> 100,29 µM,36.3 µM,> 100,16.3 µM,22.1 µM,20.8 µM,17.1 µM,19 µM,34 µM,29.8 µM,15.6 µM,17.7 µM,35.1 µM
COC1C(CO)OC(n2c3ccccc3c3c4c(c5c6ccccc6[nH]c5c32)C(=O)NC4=O)C(O)C1OC(=O)C(N)CCCCN (stereo unspecified),> 15.5 µM,> 10.2 µM,> 50,14.8 µM,9.91 µM,> 21.5 µM,> 16.9,0.838 µM,5.04 µM,7.43,2.11 µM,0.648 µM,0.23 µM,2.44 µM,1.93 µM,0.653 µM,0.198 µM,0.208 µM,1.07 µM,1.26 µM
Nc1ccc2c(c1)CN1C(=O)c3ccccc3C1=N2,> 122 µM,> 125 µM,> 90,102 µM,> 125 µM,> 125 µM,> 125,90.9 µM,> 125 µM,> 116,46.5 µM,67.5 µM,37.6 µM,,,36.8 µM,,,,32.2 µM
CC(C)n1nc(C#Cc2cccc(NC(=O)c3cccc(C(F)(F)F)c3)c2)c2c(N)ncnc21,4.55 µM,5.68 µM,> 100,2.49 µM,1.96 µM,14.3 µM,> 100,30.8 µM,> 100 µM,> 100,1.98 µM,0.538 µM,2.73 µM,1.02 µM,0.308 µM,2.65 µM,2.2 µM,2.55 µM,1.67 µM,2.88 µM
COc1cc(OC)c(/C=C/S(=O)(=O)Cc2ccc(OC)c(NCC(=O)O)c2)c(OC)c1,> 100 µM,> 100 µM,> 100,> 100 µM,> 100 µM,> 100 µM,> 100,1.29 µM and 1.01 µM,0.115 µM and 0.111 µM,> 100,0.442 µM and 0.099 µM,,0.159 µM and 0.291 µM,0.0726 µM and 0.0467 µM,0.396 µM and 0.288 µM,0.177 µM and 0.144 µM,0.13 µM and 0.108 µM,0.113 µM and 0.0684 µM,0.0312 µM and 0.0283 µM,0.0687 µM and 0.0446 µM
COc1cc2c(cc1OC)[C@H]1C(=O)c3cc4c(cc3[C@H]1N(C)C2=O)OCO4,> 100 µM,> 100 µM,17,> 100 µM,> 100 µM,> 45.2 µM,> 100,> 48.8 µM,> 100 µM,> 69.9,,,,,,,,,,
Cn1c(COC(=O)NCCN2CCOCC2)nc2c(N3CCOCC3)nc(-c3ccccc3)nc21,16.1 µM,3.16 µM,2.17,2.22 µM,3.2 µM,2.23 µM,1.78,3.05 µM,2.47 µM,5.99,4.79 µM,1.44 µM,0.306 µM,0.797 µM,1.65 µM,0.843 µM,0.444 µM,1.64 µM,1.07 µM,2.09 µM
COc1cc(OC)cc(N2CCN(C(=O)Nc3nc4cc(F)ccc4nc3OC)CC2)c1,> 47.8 µM and 17.1 µM,73.4 µM and 56.8 µM,> 100,40.7 µM and 66.1 µM,29.1 µM and 10.8 µM,31 µM and 22.1 µM,> 100,0.294 µM and 0.399 µM and 0.16 µM,0.0215 µM and 0.0336 µM,20.6,0.0406 µM and 0.0838 µM and 0.033 µM,20.1 µM and 12.7 µM,0.0899 µM and 0.0338 µM and 0.0345 µM,< 0.01 µM and 0.016 µM,0.277 µM and 0.0666 µM and 0.0306 µM,0.0487 µM and 0.046 µM and 0.0362 µM,0.0283 µM and 0.0372 µM and 0.0395 µM,< 0.023 µM and 0.0297 µM and 0.023 µM,< 0.01 µM and 0.01 µM,< 0.0184 µM and 0.0255 µM
CCSc1nc(N)c2cnn(C)c2n1,> 100 µM,> 100 µM,> 100,> 100 µM,> 100 µM,> 100 µM,> 100,38.9 µM,> 100 µM,> 100,54.8 µM,67.1 µM,42.3 µM,36.2 µM,> 100 µM,80 µM,34.2 µM,16.1 µM,38.7 µM,51.7 µM
N#CC1(C#N)C2C=CC(C3CCC=C32)C1(C#N)C#N (stereo unspecified),> 10 µM,> 10 µM,> 7.86,> 10 µM,> 10 µM,> 9.04 µM,3.32,> 10 µM,> 10 µM,> 10,,,,,,,,,,
C[C@]12CC[C@@H]3c4ccc(O)cc4CC[C@H]3[C@@H]1CC[C@@H]2NS(=O)(=O)c1ccc(-c2ccccc2)cc1,> 100 µM,32.6 µM,> 100,8.08 µM,13.6 µM,22.5 µM,> 100,3.26 µM,12.3 µM,13.2,6.79 µM,4.26 µM,3.34 µM,2.58 µM,3.78 µM,3.82 µM,5.54 µM,1.71 µM,3.21 µM,3.06 µM
CN1CC(C(=O)NC2(C)OC3(O)C4CCCN4C(=O)C(Cc4ccccc4)N3C2=O)C=C2c3cccc4[nH]cc(c34)CC21 (stereo unspecified),> 100 µM,29.8 µM,> 100,40.5 µM,35.1 µM,45 µM,> 100,30.6 µM,50.7 µM,57.1,,,,,,,,,,
COc1cc(C(=O)/C=C/c2c(C(F)(F)F)nc3sccn23)cc(OC)c1OC,8.99 µM,4.2 µM,8.34,4.24 µM,5.09 µM,3.16 µM,3.56,2.96 µM,4.35 µM,7.86,2.87 µM,1.9 µM,1.24 µM,2.02 µM,2.26 µM,1.76 µM,1.67 µM,1.59 µM,1.61 µM,2.58 µM
CC(C)(C)NCCC(O)c1cc(C(F)(F)F)nc2c(C(F)(F)F)cccc12 (stereo unspecified),30.3 µM,26.4 µM,30.5,19.2 µM,24.6 µM,19.6 µM,> 52.6,25.5 µM,27.6 µM,22.6,,,,,,,,,,
OCCCCC#Cc1ccccc1C#Cc1cnccn1,> 100 µM,62 µM,> 100,54.2 µM,> 100 µM,> 100 µM,> 100,> 100 µM,> 100 µM,91.6,46.3 µM,26 µM,26.9 µM,15 µM,70.7 µM,34.7 µM,62.6 µM,38.2 µM,33.8 µM,28.1 µM
O=c1[nH]c(-c2ccccn2)nc2sc3c(c12)CCCCCC3,> 100 µM,> 100 µM,> 100,> 100 µM,> 100 µM,> 100 µM,> 100,> 100 µM,> 100 µM,,> 100 µM,> 100 µM,0.905 µM,7.42 µM,> 100 µM,5.65 µM,4.85 µM,2.92 µM,> 100 µM,
CC1(C)CC2(C)OC2C2(C1)N=NC(=Nc1ccccc1)O2 (stereo unspecified),> 100 µM,15.7 µM,8.07,6.26 µM,24.3 µM,5.63 µM,9.28,18.5 µM,24.2 µM,29.1,28.5 µM,4.11 µM,2.46 µM,2.19 µM,10.5 µM,2.33 µM,2.35 µM,5.48 µM,3.01 µM,13.3 µM
CC(C)C[C@H](NC(=O)[C@@H](O)[C@H](N)Cc1ccccc1)C(=O)O,> 100 µM,> 100 µM,> 100,> 100 µM,> 100 µM,> 100 µM,> 100,> 100 µM,> 100 µM,> 100,,,,,,,,,,
